According to PubChem BioAssay AID1918996 (Molecular Pharmacology Branch, DTP, NCI, 2023):
Several values for one entry are separate records, joined by “and”; a condition that tells them apart may be missing. Identical values can stand only once.

Test system: 349418-098-R-PDC complex spheroid growth
Test: Anticancer human tumor 349418-098-R-PDC patient-derived lung adenocarcinoma cell line growth inhibition [AhR]
Conditions: for viability, T/C: stronger effect = lower value
In short: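 Complex tumor spheroids co-cultured with HUVEC and human MSC stroma; AhR antagonists tested in combination with standard-of-care and investigational agents. Top concentration at or near clinical Cmax (else 10 microM), half-log dilutions; growth expressed as percent test/control.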

[1] = curve of first compound, second compound 0.1 µM
[2] = curve of first compound, second compound 0.316 µM
[3] = curve of first compound, second compound 1 µM
[4] = curve of first compound, second compound 3.16 µM
[5] = curve of first compound, second compound 10 µM
[6] = second compound 0.1 µM, first compound 0.0316 µM
[7] = second compound 0.1 µM, first compound 0.1 µM
[8] = second compound 0.316 µM, first compound 0.0316 µM
[9] = second compound 0.316 µM, first compound 0.1 µM
[10] = second compound 1 µM, first compound 0.0316 µM
[11] = second compound 1 µM, first compound 0.1 µM
[12] = second compound 3.16 µM, first compound 0.0316 µM
[13] = second compound 3.16 µM, first compound 0.1 µM
[14] = second compound 10 µM, first compound 0.0316 µM
[15] = second compound 10 µM, first compound 0.1 µM
[16] = second compound 0.1 µM, first compound 0.316 µM
[17] = second compound 0.1 µM, first compound 1 µM
[18] = second compound 0.1 µM, first compound 3.16 µM
[19] = second compound 0.1 µM, first compound 10 µM
[20] = second compound 0.316 µM, first compound 0.316 µM
[21] = second compound 0.316 µM, first compound 1 µM
[22] = second compound 0.316 µM, first compound 3.16 µM
[23] = second compound 0.316 µM, first compound 10 µM
[24] = second compound 1 µM, first compound 0.316 µM
[25] = second compound 1 µM, first compound 1 µM
[26] = second compound 1 µM, first compound 3.16 µM
[27] = second compound 1 µM, first compound 10 µM
[28] = second compound 3.16 µM, first compound 0.316 µM
[29] = second compound 3.16 µM, first compound 1 µM
[30] = second compound 3.16 µM, first compound 3.16 µM
[31] = second compound 3.16 µM, first compound 10 µM
[32] = second compound 10 µM, first compound 0.316 µM
[33] = second compound 10 µM, first compound 1 µM
[34] = second compound 10 µM, first compound 3.16 µM
[35] = second compound 10 µM, first compound 10 µM
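Further: spheroids exposed to agents for seven days before luminescence viability read.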
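Wherever viability, T/C is given: spheroids also contain HUVEC endothelial cells and human MSC stroma.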

CC[C@@]1(O)C(=O)OCc2c1cc1n(c2=O)Cc2cc3c(CN(C)C)c(O)ccc3nc2-1 + Cc1ccccc1N=Nc1ccc(NC(=O)c2ccnn2C)c(C)c1
IC50 [1]: 16.5 nM
IC50 [2]: 11.3 nM
IC50 [3]: 13.4 nM
IC50 [4]: 8.38 nM
IC50 [5]: 6.22 nM
viability, T/C (second compound 0.1 µM, first compound 0.000316 µM): 116%
viability, T/C (second compound 0.1 µM, first compound 0.001 µM): 101%
viability, T/C (second compound 0.1 µM, first compound 0.00316 µM): 112%
viability, T/C (second compound 0.1 µM, first compound 0.01 µM): 65.9%
viability, T/C [6]: 29.3%
viability, T/C [7]: 13%
viability, T/C (second compound 0.316 µM, first compound 0.000316 µM): 95%
viability, T/C (second compound 0.316 µM, first compound 0.001 µM): 104%
viability, T/C (second compound 0.316 µM, first compound 0.00316 µM): 98.5%
viability, T/C (second compound 0.316 µM, first compound 0.01 µM): 52.8%
viability, T/C [8]: 25.5%
viability, T/C [9]: 17%
viability, T/C (second compound 1 µM, first compound 0.000316 µM): 130%
viability, T/C (second compound 1 µM, first compound 0.001 µM): 76.9%
viability, T/C (second compound 1 µM, first compound 0.00316 µM): 98%
viability, T/C (second compound 1 µM, first compound 0.01 µM): 57.3%
viability, T/C [10]: 22.5%
viability, T/C [11]: 17.2%
viability, T/C (second compound 3.16 µM, first compound 0.000316 µM): 64.5%
viability, T/C (second compound 3.16 µM, first compound 0.001 µM): 63.3%
viability, T/C (second compound 3.16 µM, first compound 0.00316 µM): 79.1%
viability, T/C (second compound 3.16 µM, first compound 0.01 µM): 46.5%
viability, T/C [12]: 19.1%
viability, T/C [13]: 15.4%
viability, T/C (second compound 10 µM, first compound 0.000316 µM): 66.8%
viability, T/C (second compound 10 µM, first compound 0.001 µM): 65.1%
viability, T/C (second compound 10 µM, first compound 0.00316 µM): 68.7%
viability, T/C (second compound 10 µM, first compound 0.01 µM): 38.2%
viability, T/C [14]: 22.2%
viability, T/C [15]: 17.5%

O=C(c1cc(Cc2n[nH]c(=O)c3ccccc23)ccc1F)N1CCN(C(=O)C2CC2)CC1 + Cc1cncc(-c2nc(NCCc3c[nH]c4ccccc34)c3ncn(C(C)C)c3n2)c1
IC50 [1]: > 10000 nM
IC50 [2]: > 10000 nM
IC50 [3]: > 10000 nM
IC50 [4]: < 31.6 nM
IC50 [5]: < 31.6 nM
viability, T/C [6]: 75.7%
viability, T/C [7]: 91.6%
viability, T/C [16]: 98.3%
viability, T/C [17]: 89.9%
viability, T/C [18]: 75.2%
viability, T/C [19]: 58.8%
viability, T/C [8]: 94.8%
viability, T/C [9]: 102%
viability, T/C [20]: 99.4%
viability, T/C [21]: 82.3%
viability, T/C [22]: 74.7%
viability, T/C [23]: 64.4%
viability, T/C [10]: 81.7%
viability, T/C [11]: 86.7%
viability, T/C [24]: 84.1%
viability, T/C [25]: 67.2%
viability, T/C [26]: 75.5%
viability, T/C [27]: 65.1%
viability, T/C [12]: 17.7%
viability, T/C [13]: 19%
viability, T/C [28]: 14.9%
viability, T/C [29]: 12.7%
viability, T/C [30]: 15%
viability, T/C [31]: 13.9%
viability, T/C [14]: 1.12%
viability, T/C [15]: 1.3%
viability, T/C [32]: 0.99%
viability, T/C [33]: 1.23%
viability, T/C [34]: 1.33%
viability, T/C [35]: 1.37%

COc1cc(C2c3cc4c(cc3C(OC3OC5COC(C)OC5C(O)C3O)C3COC(=O)C23)OCO4)cc(OC)c1O (stereo unspecified)
viability, T/C (compound 0.0316 µM): 99.4% and 112% and 89.4%
viability, T/C (compound 0.1 µM): 99.9% and 91.1% and 91.7%
viability, T/C (compound 0.316 µM): 64.6% and 71% and 38.2%
viability, T/C (compound 1 µM): 22.5% and 31.2% and 21.6%
viability, T/C (compound 3.16 µM): 11.2% and 15.4% and 15.3%
viability, T/C (compound 10 µM): 5.4% and 11.7% and 12.5%
IC50 (curve of compound): 479 nM and 566 nM and 244 nM

CC1COCCN1c1cc(C2(S(C)(=N)=O)CC2)nc(-c2ccnc3[nH]ccc23)n1 (stereo unspecified)
viability, T/C (compound 0.0316 µM): 101% and 113% and 96.1%
viability, T/C (compound 0.1 µM): 102% and 81.9% and 78.6%
viability, T/C (compound 0.316 µM): 102% and 125% and 74.4%
viability, T/C (compound 1 µM): 100% and 62.9% and 65.1%
viability, T/C (compound 3.16 µM): 73% and 40.4% and 28.4%
viability, T/C (compound 10 µM): 16.1% and 13.5% and 12.1%
IC50 (curve of compound): 5040 nM and 1510 nM and 1460 nM

CC1COCCN1c1cc(-c2ccnn2C)c2ccnc(-c3ccn[nH]3)c2n1 (stereo unspecified)
viability, T/C (compound 0.00316 µM): 107% and 93.3% and 81%
viability, T/C (compound 0.01 µM): 106% and 116% and 95.6%
viability, T/C (compound 0.0316 µM): 96.8% and 76.4% and 101%
viability, T/C (compound 0.1 µM): 64% and 45.4% and 42.6%
viability, T/C (compound 0.316 µM): 18.7% and 15.7% and 14.7%
viability, T/C (compound 1 µM): 7.38% and 10.8% and 9.29%
IC50 (curve of compound): 142 nM and 80.8 nM and 84.4 nM

COc1ccc([C@@H](O)c2cc(-c3ncnc4cc(N5CCOCC5)ccc34)c(F)cc2Cl)nn1
viability, T/C (compound 0.0316 µM): 97.4% and 104% and 117%
viability, T/C (compound 0.1 µM): 112% and 77.3% and 98.6%
viability, T/C (compound 0.316 µM): 101% and 83.1% and 51.5%
viability, T/C (compound 1 µM): 84.5% and 66.4% and 65.3%
viability, T/C (compound 3.16 µM): 57.2% and 33.5% and 38.6%
viability, T/C (compound 10 µM): 16.7% and 11.3% and 12.6%
IC50 (curve of compound): 3790 nM and 1770 nM and 1160 nM

O=C(C=Cc1cccc(S(=O)(=O)Nc2ccccc2)c1)NO + CC(CO)NC(=O)c1cc(-c2ccc(Cl)cc2)nn(-c2cnn(C)c2)c1=O
IC50 [1]: 572 nM
IC50 [2]: 615 nM
IC50 [3]: 638 nM
IC50 [4]: 567 nM
IC50 [5]: 445 nM
viability, T/C [6]: 85.8%
viability, T/C [7]: 94%
viability, T/C [16]: 69.8%
viability, T/C [17]: 30%
viability, T/C [18]: 8.25%
viability, T/C [19]: 1.75%
viability, T/C [8]: 110%
viability, T/C [9]: 101%
viability, T/C [20]: 75.5%
viability, T/C [21]: 31.5%
viability, T/C [22]: 7.87%
viability, T/C [23]: 1.86%
viability, T/C [10]: 99.8%
viability, T/C [11]: 109%
viability, T/C [24]: 77%
viability, T/C [25]: 31.8%
viability, T/C [26]: 8.85%
viability, T/C [27]: 1.91%
viability, T/C [12]: 90.7%
viability, T/C [13]: 102%
viability, T/C [28]: 68.4%
viability, T/C [29]: 30.1%
viability, T/C [30]: 7.44%
viability, T/C [31]: 1.82%
viability, T/C [14]: 72.7%
viability, T/C [15]: 82.5%
viability, T/C [32]: 53.6%
viability, T/C [33]: 32.1%
viability, T/C [34]: 7.16%
viability, T/C [35]: 1.98%

NS(=O)(=O)OCC1CC(n2ccc3c(NC4CCc5ccccc54)ncnc32)CC1O (stereo unspecified) + CC(CO)NC(=O)c1cc(-c2ccc(Cl)cc2)nn(-c2cnn(C)c2)c1=O
IC50 [1]: 188 nM
IC50 [2]: 149 nM
IC50 [3]: 107 nM
IC50 [4]: 49.4 nM
IC50 [5]: < 31.6 nM
viability, T/C [6]: 83.2%
viability, T/C [7]: 65.6%
viability, T/C [16]: 37.1%
viability, T/C [17]: 18.4%
viability, T/C [18]: 13.4%
viability, T/C [19]: 8.51%
viability, T/C [8]: 92.7%
viability, T/C [9]: 62.9%
viability, T/C [20]: 24.7%
viability, T/C [21]: 19.9%
viability, T/C [22]: 11.2%
viability, T/C [23]: 8.21%
viability, T/C [10]: 68.8%
viability, T/C [11]: 52.2%
viability, T/C [24]: 24.5%
viability, T/C [25]: 16.3%
viability, T/C [26]: 10.8%
viability, T/C [27]: 9.16%
viability, T/C [12]: 54.8%
viability, T/C [13]: 42.6%
viability, T/C [28]: 22.7%
viability, T/C [29]: 14.7%
viability, T/C [30]: 10.7%
viability, T/C [31]: 8.74%
viability, T/C [14]: 33.8%
viability, T/C [15]: 30.9%
viability, T/C [32]: 25.7%
viability, T/C [33]: 16.7%
viability, T/C [34]: 10.9%
viability, T/C [35]: 8.91%

Cc1cncc(-c2nc(NCCc3c[nH]c4ccccc34)c3ncn(C(C)C)c3n2)c1
viability, T/C (compound 0.1 µM): 97.7% [middle of 20 runs]
viability, T/C (compound 0.316 µM): 93.4% [middle of 20 runs]
viability, T/C (compound 10 µM): 2.04% [middle of 19 runs]

COc1cccc2c1C(=O)c1c(O)c3c(c(O)c1C2=O)CC(O)(C(=O)CO)CC3OC1CC(N)C(O)C(C)O1 (stereo unspecified) + Cc1ccccc1N=Nc1ccc(NC(=O)c2ccnn2C)c(C)c1
IC50 [1]: < 31.6 nM
IC50 [2]: < 31.6 nM
IC50 [3]: < 31.6 nM
IC50 [4]: < 31.6 nM
IC50 [5]: < 31.6 nM
viability, T/C [6]: 25.2%
viability, T/C [7]: 19%
viability, T/C [16]: 5.76%
viability, T/C [17]: 0.44%
viability, T/C [18]: 4.06%
viability, T/C [19]: 7.47%
viability, T/C [8]: 21.5%
viability, T/C [9]: 17.8%
viability, T/C [20]: 5.6%
viability, T/C [21]: 1.97%
viability, T/C [22]: 4.18%
viability, T/C [23]: 7.15%
viability, T/C [10]: 24.3%
viability, T/C [11]: 19.2%
viability, T/C [24]: 6.34%
viability, T/C [25]: 0.81%
viability, T/C [26]: 4.84%
viability, T/C [27]: 6.54%
viability, T/C [12]: 23.6%
viability, T/C [13]: 18%
viability, T/C [28]: 6.45%
viability, T/C [29]: 0.66%
viability, T/C [30]: 4.34%
viability, T/C [31]: 6.09%
viability, T/C [14]: 20.4%
viability, T/C [15]: 15.6%
viability, T/C [32]: 4.32%
viability, T/C [33]: 1.12%
viability, T/C [34]: 3.09%
viability, T/C [35]: 7.07%
